Source: patent US8759315B2, “Methods for rejuvenating” (Viacell, LLC, priority 2003, dated 2014)

Tests used:
RBC [1] = assay: Rejuvenation with D-ribose and phosphoenolpyruvate, DPG assay; assay type: cell-based; conditions: six days at room temperature, then 15 mM D-ribose, 10 mM to 100 mM PEP or both, 37°, 30 minutes; day 0 about 2 μmol/ml (FIG. 3)
Procedure: (§1) The DPG assay was as follows: • To 2 mL Tris buffer with EDTA, was added 0.05 ml ATP 40 mM plus NADH 9.6 mM; 0.04 ml PGM (Sigma kit 665PA, Sigma, Inc. St. Louis, Mo.) and 0.1 ml RBC. The reaction mixture was allowed to equilibrate for five minutes at room temperature and the absorption at 339 nm wavelength was recorded. Next was added 0.02 ml PGM and 0.02 ml glycolate-2-phosphate. The reaction was allowed to proceed for 25 minutes and the absorption at 339 nm wavelength was recorded. The packed cell DPG equals (μmol/ml)×100 divided by the hematocrit.
The rejuvenation experiment of Example 4 was repeated adding the high energy glycolysis intermediate phosphoenolpyruvate (PEP). Samples were held at for six days at room temperature until DPG levels were barely detectable. At that point, 15 mM D-ribose, 10 mM to 100 mM PEP or both were added and the blood incubated at 37° for 30 minutes. […] Adding PEP gave some benefit, raising the DPG levels to nearly 1 μmol/ml. Ribose also raised levels to about 1 μmol/ml. The effect of ribose plus PEP was additive: levels exceeded 1.5 μmol/ml, nearly the levels on day 0.

Whole blood = assay: Rejuvenation of stored whole blood, DPG assay; assay type: cell-based
Procedure: as §1
An experiment was devised to determine whether the DPG levels could be brought back to approximate initial levels, that is, whether the RBC could be rejuvenated. Whole blood with heparin as anticoagulant was held at room temperature for 6 days, at which time DPG levels were undetectable. D-ribose at 10 mM was added and the blood was incubated at 37° C. for thirty minutes. […] The incubation time will be extended to determine whether the DPG levels can be further increased.

RBC [2] = conditions: 42 days of storage at 4° C.; D-ribose: 15mM D-ribose and 10 mM phosphate added to CPD; cited from earlier work
RBC [3] = assay: Oxygen dissociation curve (P50) of stored and rejuvenated blood; assay type: cell-based; conditions: six-day CPD sample rejuvenated as for Example 3A (10 mM D-ribose, 37° C., thirty minutes)
Text: When the percent saturation of oxygen in blood is plotted against the partial pressure of oxygen (mmHg), the resulting curve is shown in FIG. 2. A shift to the right occurs when DPG is increased or pH is decreased. Consistent with the DPG experiments, the oxygen tension giving 50% saturation (P50) after six days storage in CPD was 43 mmHg. When this sample was rejuvenated as for Example 3A above, the P50 was 18.2 mmHg.

| SMILES | DPG levels after rejuvenation (RBC [1]) | DPG after rejuvenation, as part of the usual initial value (Whole blood; whole blood with heparin held 6 days at room temperature (DPG undetectable), 10 mM D-ribose, 37° C., thirty minutes) | 2,3 DPG level maintained, of its initial level (RBC [2]) | oxygen tension giving 50% saturation (P50) (RBC [3]) [mmHg] | effect on rejuvenation (Whole blood; ribose reduced to one mM or increased to 100 mM, inosine substituted for ribose) |
| --- | --- | --- | --- | --- | --- |
| C=C(OP(=O)(O)O)C(=O)O [PEP, phosphoenolpyruvate] | about 1 μmol/ml |  |  |  |  |
| O=C[C@H](O)[C@H](O)[C@H](O)CO [D-ribose] | about 1 μmol/ml | about one-third | about 50% | 18.2 |  |
| OC[C@H]1O[C@@H](n2cnc3c(O)ncnc32)[C@H](O)[C@@H]1O [inosine] |  |  |  |  | equally beneficial effects on rejuvenation |
